Assay results taken from paper PMC12677052, “Identification and rescue of congenital hyperinsulinism-associated ABCC8 mutations that impair KATP channel trafficking” (The Journal of Biological Chemistry, 2025).

What was measured:
Type in all cases: cell-based
[1] = biological target: T1, sulfonylurea receptor 1 (SUR1) (Homo sapiens, UniProt Q09428); experiment: Rb+ efflux inhibition in cells after […] overnight treatment and washout
T1 construct: gene ABCC8; human FLAG-tagged SUR1 (f-SUR1) coexpressed with human Kir6.2 in COSm6 cells; with Kir6.2 (KCNJ11)

[2] = biological target: T1, sulfonylurea receptor 1 (SUR1); experiment: inside-out patch-clamp dose-response
[3] = biological target: T2, sulfonylurea receptor 1 (SUR1) (Homo sapiens, UniProt Q09428, Y124F); experiment: inside-out patch-clamp dose-response
T2 construct: gene ABCC8; human FLAG-tagged SUR1 (f-SUR1) coexpressed with human Kir6.2 in COSm6 cells; with Kir6.2 (KCNJ11)

[4] = biological target: T3, sulfonylurea receptor 1 (SUR1) (Homo sapiens, UniProt Q09428, W143R); experiment: pharmacochaperone rescue in cells at […] (western blot, Rb+ efflux)
T3 construct: gene ABCC8; human FLAG-tagged SUR1 (f-SUR1) coexpressed with human Kir6.2 in COSm6 cells; with Kir6.2 (KCNJ11)
T3 sequence (Q09428 whole entry W143R): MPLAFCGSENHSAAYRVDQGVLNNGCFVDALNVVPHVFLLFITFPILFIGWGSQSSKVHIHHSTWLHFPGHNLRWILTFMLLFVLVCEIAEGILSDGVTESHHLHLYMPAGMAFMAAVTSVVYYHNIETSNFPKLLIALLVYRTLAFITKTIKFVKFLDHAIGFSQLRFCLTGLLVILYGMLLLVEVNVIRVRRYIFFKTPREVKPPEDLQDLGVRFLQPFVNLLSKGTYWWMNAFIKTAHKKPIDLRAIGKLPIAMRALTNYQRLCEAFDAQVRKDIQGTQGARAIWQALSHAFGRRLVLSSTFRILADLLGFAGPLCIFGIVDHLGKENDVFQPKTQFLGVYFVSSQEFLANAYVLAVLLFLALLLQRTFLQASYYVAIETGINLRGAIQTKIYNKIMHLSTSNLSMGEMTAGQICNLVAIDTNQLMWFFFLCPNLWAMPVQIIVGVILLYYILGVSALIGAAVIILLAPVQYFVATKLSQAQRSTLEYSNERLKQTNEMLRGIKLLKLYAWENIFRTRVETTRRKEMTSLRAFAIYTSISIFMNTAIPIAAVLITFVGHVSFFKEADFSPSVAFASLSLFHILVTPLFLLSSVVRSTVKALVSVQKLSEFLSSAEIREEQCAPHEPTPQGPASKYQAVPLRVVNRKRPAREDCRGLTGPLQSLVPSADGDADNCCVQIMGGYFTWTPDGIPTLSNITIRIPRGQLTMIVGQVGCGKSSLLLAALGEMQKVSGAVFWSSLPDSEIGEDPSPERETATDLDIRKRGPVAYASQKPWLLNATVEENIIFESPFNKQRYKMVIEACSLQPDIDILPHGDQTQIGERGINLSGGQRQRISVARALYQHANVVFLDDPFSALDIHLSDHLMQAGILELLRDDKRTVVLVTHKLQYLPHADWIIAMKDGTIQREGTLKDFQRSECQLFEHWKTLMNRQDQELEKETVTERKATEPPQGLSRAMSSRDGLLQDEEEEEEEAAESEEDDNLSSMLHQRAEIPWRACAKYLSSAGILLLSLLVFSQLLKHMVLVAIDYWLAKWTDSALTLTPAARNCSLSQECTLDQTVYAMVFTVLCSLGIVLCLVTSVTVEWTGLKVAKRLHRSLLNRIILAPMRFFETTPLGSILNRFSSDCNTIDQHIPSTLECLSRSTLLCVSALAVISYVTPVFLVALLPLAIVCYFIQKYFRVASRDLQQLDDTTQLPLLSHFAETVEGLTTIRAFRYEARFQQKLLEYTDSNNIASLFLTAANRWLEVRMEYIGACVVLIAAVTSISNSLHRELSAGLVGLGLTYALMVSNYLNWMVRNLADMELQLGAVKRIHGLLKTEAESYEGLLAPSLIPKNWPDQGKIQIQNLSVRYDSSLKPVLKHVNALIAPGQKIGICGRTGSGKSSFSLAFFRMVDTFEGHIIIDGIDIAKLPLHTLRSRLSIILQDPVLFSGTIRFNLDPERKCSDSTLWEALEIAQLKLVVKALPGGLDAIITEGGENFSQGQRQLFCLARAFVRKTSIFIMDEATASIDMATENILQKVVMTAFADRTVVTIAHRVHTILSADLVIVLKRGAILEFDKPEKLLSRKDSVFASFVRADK
T3 sequence (Q14654 whole entry partner): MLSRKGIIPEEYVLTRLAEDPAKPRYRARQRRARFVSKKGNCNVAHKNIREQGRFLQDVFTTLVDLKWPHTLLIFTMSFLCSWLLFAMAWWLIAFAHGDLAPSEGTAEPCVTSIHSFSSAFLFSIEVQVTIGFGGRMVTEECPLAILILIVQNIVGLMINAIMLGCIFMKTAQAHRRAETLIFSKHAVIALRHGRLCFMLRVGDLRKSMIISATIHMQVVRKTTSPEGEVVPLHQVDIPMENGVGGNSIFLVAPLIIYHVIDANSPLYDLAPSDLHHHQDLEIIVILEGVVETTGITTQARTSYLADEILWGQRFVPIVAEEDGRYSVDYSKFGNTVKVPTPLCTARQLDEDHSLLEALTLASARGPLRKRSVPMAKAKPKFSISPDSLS

T1 sequence (Q09428 whole entry): as the sequence (Q09428 whole entry W143R) above, with R143W counted along it
T1 sequence (Q14654 whole entry partner): as the sequence (Q14654 whole entry partner) above
T2 sequence (Q09428 whole entry Y124F): as the sequence (Q09428 whole entry W143R) above, with Y124F, R143W counted along it
T2 sequence (Q14654 whole entry, further chain): as the sequence (Q14654 whole entry partner) above

Structure (SMILES): COc1ccc(Cl)cc1C(=O)NCCc1ccc(S(=O)(=O)NC(=O)NC2CCCCC2)cc1 [GBC, glibenclamide]
- Rb+ efflux inhibition in cells after 10 μM overnight treatment and washout [1]: This reduction is due to GBC inhibition of channels already present at the cell surface.

Structure (SMILES): Nc1ncnc2c1ncn2[C@@H]1O[C@H](COP(=O)(O)OP(=O)(O)O)[C@@H](O)[C@H]1O [MgADP]
- EC50 [2]: 62.2 ± 18.8 µM
- EC50 [3]: 224 ± 47.9 µM

Structure (SMILES): CCCCNC(=O)NS(=O)(=O)c1ccc(C)cc1 [Tolb, tolbutamide]
- pharmacochaperone rescue in cells at 200 μM (western blot, Rb+ efflux) [4]: N32K, P133R, W143R, and Y230C mutations showed clear albeit variable response to the three pharmacochaperones
